Entries after “also recorded” stand apart in the source; their conditions may differ. Bridge positions count the residues as written; N and C are the ends. Square brackets hold non-standard residues; d marks the D form. Peptide text beside a SMILES is read from it. hArg = N=C(N)NCCCC[C@H](N)C(=O)O; Ac5c = NC1(C(=O)O)CCCC1; Aib = CC(C)(N)C(=O)O
What was measured:
CYP2D6 = CYP2D6 (Homo sapiens, UniProt P10635); experiment: CYP2D6 inhibition in pooled human liver microsomes; format: in vitro ADME; set-up: Pooled human liver microsomes (HLM, final concentration 0.05 mg protein/mL); tissue BD Biosciences 452161; host or cells: pooled human liver microsomes; conditions: 10 μM compound, dextrorphan formation rate
Chain of CYP2D6 (P10635 whole entry): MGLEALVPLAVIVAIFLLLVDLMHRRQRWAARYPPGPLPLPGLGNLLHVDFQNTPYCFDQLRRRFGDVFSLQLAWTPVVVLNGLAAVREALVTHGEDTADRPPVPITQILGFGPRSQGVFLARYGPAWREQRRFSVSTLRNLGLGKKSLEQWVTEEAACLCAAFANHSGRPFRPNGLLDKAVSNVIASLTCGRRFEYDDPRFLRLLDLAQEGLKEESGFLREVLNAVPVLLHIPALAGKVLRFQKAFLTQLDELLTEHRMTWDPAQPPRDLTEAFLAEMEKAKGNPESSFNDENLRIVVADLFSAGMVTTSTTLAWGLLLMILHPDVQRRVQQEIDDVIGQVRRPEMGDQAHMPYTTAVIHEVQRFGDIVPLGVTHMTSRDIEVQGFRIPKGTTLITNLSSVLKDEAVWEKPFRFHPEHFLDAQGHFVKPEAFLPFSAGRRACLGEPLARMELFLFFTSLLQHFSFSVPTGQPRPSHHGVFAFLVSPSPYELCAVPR
Summary of the method: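 Pooled HLM (0.05 mg/mL) in 0.1 M KPi pH 7.4 with 5 μM dextromethorphan and 10 μM test compound, preincubated 5 min at 37 °C, then started with NADPH-regenerating system for 5 min. Dextrorphan quantified by LC/MS/MS; activity expressed as % of vehicle; <70% considered significant.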

PTH receptor 1 = target: T1, PTH receptor 1 (Mus musculus, UniProt P41593); experiment: MC3T3-E1 cAMP efficacy assay; format: cell-based, murine; conditions: MC3T3-E1 cells; for EC50: 100 μM IBMX, 37° C.; for Emax ± SEM [pmol/well]: maximally inducible cAMP
T1 construct: host or cells: MC3T3-E1 subclone 4
T1 sequence (P41593 27-591): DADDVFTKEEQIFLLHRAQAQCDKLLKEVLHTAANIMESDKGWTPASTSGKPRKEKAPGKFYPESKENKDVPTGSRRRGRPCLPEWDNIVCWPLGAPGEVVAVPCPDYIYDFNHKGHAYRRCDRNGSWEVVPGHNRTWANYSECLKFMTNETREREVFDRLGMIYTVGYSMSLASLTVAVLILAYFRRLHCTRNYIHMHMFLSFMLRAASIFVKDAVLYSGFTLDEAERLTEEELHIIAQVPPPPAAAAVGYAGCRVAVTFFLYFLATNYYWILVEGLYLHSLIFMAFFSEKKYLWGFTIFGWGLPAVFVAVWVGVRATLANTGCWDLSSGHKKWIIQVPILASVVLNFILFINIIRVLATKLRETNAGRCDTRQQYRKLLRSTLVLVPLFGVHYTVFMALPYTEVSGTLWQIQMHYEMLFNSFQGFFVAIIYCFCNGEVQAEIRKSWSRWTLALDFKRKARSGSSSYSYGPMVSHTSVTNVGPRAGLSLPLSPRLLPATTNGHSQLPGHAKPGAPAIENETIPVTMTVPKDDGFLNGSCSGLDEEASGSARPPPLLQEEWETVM
Procedure: MC3T3-E1 cells were seeded at 10,000 cells/well in 96-microtiter plates and grown overnight before the efficacy assays. On the day of analysis the growth medium was carefully removed by suction. Cells were washed once with 200 μl TB/0.1% […]. The buffer was replaced with 100 μl reaction mixture (±test peptide, +100 μM IBMX) and incubated at 37° C. for 13 min. The reaction was stopped by addition of 25 μl of ice-cold 0.5 M HCl. Cells were in the following incubated on ice for 60 min. 75 μl acetate-buffer were added to each well in a 96-well cAMP FlashPlate. […] FlashPlates were incubated overnight at 4° C., emptied by suction and counted in a TopCounter.
Determinations were performed in triplicates at all doses. Standards were included as single determinations, duplicates or triplicates in each experiment, preferentially on each plate.
Efficacy was evaluated in the concentration range from […].
Concentration-dependent cAMP responses were imported into GraphPad Prism vers. 4, transformed and plotted. Curves were fitted with a function for sigmoidal dose response curve non-linear fit Y=Bottom+(Top-Bottom)/(1+10̂((LogEC50-X))) where X is the logarithm of concentration and Y is the response. Y starts at Bottom and goes to Top with a sigmoid shape. pEC50 and the maximally inducible concentration of cAMP were evaluated. Overall statistical differences were analyzed using one-way ANOVA. Post-hoc comparisons were made by the use of Fisher's Least Significance Test. Results were considered significant, when p was lower than 0.05.

Saos-2 PTH1R = target: T2, Saos-2 PTH1R (Homo sapiens, UniProt Q03431); experiment: cAMP-efficacy assay in Saos-2 cells; format: cell-based; conditions: for potency compared to linear / non-stabilized counterparts, in words / EC50: cAMP; for EC50: 100 μM IBMX, 37° C. 15 min, suffix of label = salt tested; for Emax ± SEM: relative effect to the control (SEQ ID NO: 32)
T2 construct: endogenous in cells; host or cells: Saos-2
T2 sequence (Q03431 27-593): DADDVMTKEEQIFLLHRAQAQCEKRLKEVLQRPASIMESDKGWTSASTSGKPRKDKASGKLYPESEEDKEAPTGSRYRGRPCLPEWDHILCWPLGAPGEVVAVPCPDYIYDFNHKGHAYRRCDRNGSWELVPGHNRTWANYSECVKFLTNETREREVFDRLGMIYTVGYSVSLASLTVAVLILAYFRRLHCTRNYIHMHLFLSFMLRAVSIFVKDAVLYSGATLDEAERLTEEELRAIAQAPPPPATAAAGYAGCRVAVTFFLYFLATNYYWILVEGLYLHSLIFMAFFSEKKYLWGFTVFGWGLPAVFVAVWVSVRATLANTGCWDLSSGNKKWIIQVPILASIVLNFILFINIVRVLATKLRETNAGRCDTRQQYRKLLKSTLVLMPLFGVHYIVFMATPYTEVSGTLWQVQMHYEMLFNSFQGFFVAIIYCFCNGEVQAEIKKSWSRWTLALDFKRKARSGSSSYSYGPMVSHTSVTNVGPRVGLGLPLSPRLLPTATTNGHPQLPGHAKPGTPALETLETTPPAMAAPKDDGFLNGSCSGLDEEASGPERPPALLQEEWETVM
Summary of the method: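 cAMP accumulation was assayed by FlashPlate after 15 min peptide stimulation at 37 °C of Saos-2 cells in Tyrode's buffer containing 100 μM IBMX and 0.1% BSA, with the reaction stopped by ice-cold HCl. Variable-slope logistic fitting gave EC50/pEC50, Hill coefficient and Emax, with single or triplicate points.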

Row | SMILES | CYP2D6 activity (% of vehicle) (CYP2D6) | potency comparison in words (PTH receptor 1; cAMP) | EC50 (PTH receptor 1; cAMP) | Emax ± SEM [pmol/well] (PTH receptor 1) | potency compared to linear / non-stabilized counterparts, in words (Saos-2 PTH1R) | potency compared to linear / non-stabilized counterparts, in words (Saos-2 PTH1R; listed as 2) | potency compared to linear / non-stabilized counterparts, in words (Saos-2 PTH1R; listed as SEQ ID NO:2) | EC50 (Saos-2 PTH1R) | Emax ± SEM (Saos-2 PTH1R)
1 | CC[C@H](C)[C@H](NC(=O)[C@H](CCC(=O)O)NC(=O)C(C)(C)NC(=O)[C@@H](NC(=O)C1(N)CCCC1)C(C)C)C(=O)N[C@@H](CCC(N)=O)C(=O)N[C@@H](CC(C)C)C(=O)N[C@@H](CCSC)C(=O)N[C@@H](Cc1c[nH]cn1)C(=O)N[C@@H](CCC(N)=O)C(=O)N[C@@H](CCCCNC(=N)N)C(=O)N[C@@H](C)C(=O)N[C@H]1CCCCNC(=O)C[C@@H](C(N)=O)NC(=O)[C@H](CC(N)=O)NC(=O)[C@H](CC(C)C)NC(=O)[C@H](Cc2c[nH]c3ccccc23)NC1=O [SEQ ID NO: 2, H-Ac5c-Val-Aib-Glu-Ile-Gln-Leu-Met-His-Gln-Har-Ala-Lys( )Trp-Leu-Asn-Asp( )-NH2] (H-[Ac5c]V[Aib]EIQLMHQ[hArg]AKWLND-NH2; lactam 13-17) | 67 % of vehicle | EC50 comparable to PTH(1-34); also recorded: significantly more potent than SEQ ID NO: 31, SEQ ID NO: 3 and SEQ ID NO: 42 | 1 nM | 4.9 ± 0.8 pmol/well | significantly higher potency | increased potencies | significantly higher potency | – | –
2 | CC[C@H](C)[C@H](NC(=O)[C@H](CCC(=O)O)NC(=O)C(C)(C)NC(=O)[C@@H](NC(=O)C1(N)CCCC1)C(C)C)C(=O)N[C@@H](CCC(N)=O)C(=O)N[C@@H](CC(C)C)C(=O)N[C@@H](CCSC)C(=O)N[C@@H](Cc1c[nH]cn1)C(=O)N[C@@H](CCC(N)=O)C(=O)N[C@@H](CCCCNC(=N)N)C(=O)N[C@@H](C)C(=O)N[C@@H](CCCCN)C(=O)N[C@@H](Cc1c[nH]c2ccccc12)C(=O)N[C@@H](CC(C)C)C(=O)N[C@@H](CC(N)=O)C(=O)N[C@@H](CC(N)=O)C(N)=O [SEQ ID NO: 3, H-Ac5c-Val-Aib-Glu-Ile-Gln-Leu-Met-His-Gln-Har-Ala-Lys-Trp-Leu-Asn-Asn-NH2] (H-[Ac5c]V[Aib]EIQLMHQ[hArg]AKWLNN-NH2) | 21 % of vehicle | – | 2.51 nM | 5.5 ± 0.9 pmol/well | – | – | – | 9.12 nM | 1.06 ± 0.06
3 | CC[C@H](C)[C@H](NC(=O)[C@H](CCC(=O)O)NC(=O)C(C)(C)NC(=O)[C@@H](NC(=O)C1(N)CCCC1)C(C)C)C(=O)N[C@@H](CCC(N)=O)C(=O)N[C@@H](CC(C)C)C(=O)N[C@@H](CCSC)C(=O)N[C@@H](Cc1c[nH]cn1)C(=O)N[C@@H](CCC(N)=O)C(=O)N[C@@H](CCCCNC(=N)N)C(=O)N[C@@H](C)C(=O)N[C@H]1CCCCNC(=O)C[C@@H](C(N)=O)NC(=O)[C@H](CC(C)C)NC(=O)[C@H](Cc2c[nH]c3ccccc23)NC1=O [SEQ ID NO: 30, H-Ac5c-Val-Aib-Glu-Ile-Gln-Leu-Met-His-Gln-Har-Ala-Lys( )-Trp-Leu-Asp( )-NH2] (H-[Ac5c]V[Aib]EIQLMHQ[hArg]AKWLD-NH2; lactam 13-16) | 83 % of vehicle | – | 10 nM | 5.0 ± 0.2 pmol/well | – | – | – | 81.3 nM | 1.04 ± 0.05

— patent publication US20100048462A1, “TRUNCATED PTH PEPTIDES WITH A CYCLIC CONFORMATION” (Zealand Pharma A/S, priority 2006, published 2010)
